Test results: patent publication US10280197B2, “Discovery of the first selective C5A receptor 2 (C5L2/C5AR2) ligands” (The Regents of the University of California, priority 2015, dated 2019)

Experiments:
[1] = target: T1, human C5a2 (Flp-In CHO-C5a2 membranes) (Homo sapiens, UniProt Q9P296); assay: C5a2 receptor binding, scintillation proximity assay (125I-C5a displacement); details: for Ki: inhibition of 125I-C5a binding to C5a2 membranes; for inhibition of 125I-C5a binding to C5a2 membranes, library screen: single concentration of 100 μM, compared to buffer control, P<0.05; for inhibition of 125I-C5a binding to C5aR2 membranes, full concentration response: up to a maximum concentration of 500 μM
T1 construct: expressed in transfected cells
Method: Membranes were prepared from Flp-In CHO-05a2 cells by a previously described method^46. Briefly, cells were washed with PBS, pH 7.4, and harvested into buffer (50 mM Tris-HCl, pH 7.4, 5 mM MgCl2, 1 mM CaCl2) before homogenizing with a Polytron homogenizer for 3 min on setting 22. Cells were centrifuged at 150×g for 5 min at 4° C. The supernatant was recovered and centrifuged at 22 000×g for 1 h at 4° C. Membrane pellets were then resuspended in 0.4 mL of ice-cold buffer (50 mM Tris-HCl, pH 7.4, 5 mM MgCl2, 1 mM CaCl2, containing 10% glycerol) with aliquots stored at −80° C. The protein concentration of the membrane preparation was determined by Bradford method^47.
C5a2 receptor binding studies were performed using a modification of a previously described scintillation proximity assay (SPA) method^48. Briefly, C5a2 SPA studies were performed in 96-well white isoplates with clear flat bottoms (Perkin Elmer, Waltham, Mass., USA). SPA beads (200 μg/well) were added, following the addition of various concentrations of competing ligands or buffer (6 pM to 500 μM) in a total volume of 80 μL of assay buffer (50 mM Tris-HCl, pH 7.4, 0.5% BSA, 5 mM MgCl2, 1 mM CaCl2). ^125I-C5a (˜20 pM) (specific activity, 2200 Ci mmol^−1) (Perkin Elmer) was added to C5a2 membrane preparations (˜2 μg/well). The final reaction volume per well comprised 20 μL of ligand/buffer, 20 μL of SPA beads, 20 μl of membrane and the assay was initiated by the addition of 20 μL of ^125I-C5a. The plate was then sealed using TopSeal-A (Perkin Elmer) sealing film and incubated with shaking for 1 h at room temperature. Radioligand binding was then assessed for 30 s/well using a 1450 Microbeta scintillation counter (Perkin Elmer).

[2] = system: C5a-induced neutrophil mobilization; assay: C5a-induced neutrophil mobilization in wild-type mice; assay type: in vivo, C57BL/6J wild-type mice; details: P32 3 mg/kg i.v. with C5a 50 μg/kg, 30 min
Method: (§1) FIG. 6 is a panel of graphs showing that P32 inhibits C5a-induced neutrophil mobilization in vivo in a C5aR2 dependent manner. Neutrophil mobilization quantified 30 min after i.v. injection of PBS, C5a (50 μg/kg), or P32 (3 mg/kg) with and without C5a present into the femoral vein of either C57BL/6J wild-type (6A) or C5aR2^−/− (6B) on a C57BL/6J background mice. Total circulating leukocyte counts were determined from blood smears and total white blood cell counts using a hemocytometer. Data are representative from at least 6 mice per treatment group and blood smears in triplicate (n=6). Error bars represent SEM. * P<0.05, *** P<0.001 by one-way ANOVA followed by Dunnett's post hoc test
(§2) To further explore the selectivity of the ligands P32 was tested in a mouse model of C5a-induced neutrophil mobilization (FIG. 6). […] Assuming a mouse blood volume of 2 mL for a 25 g mouse, a concentration of 3 mg/kg would result in Cmax blood concentrations of ˜50 uM, a dose within the active range of this compound from our in vitro studies

[3] = system: C5a-induced neutrophil mobilization; assay: C5a-induced neutrophil mobilization in C5aR2-/- mice; assay type: in vivo, C5aR2-/- mice on a C57BL/6J background; details: P32 3 mg/kg i.v. with C5a 50 μg/kg, 30 min
Method: as §1, §2

T1 sequence (Q9P296 whole entry): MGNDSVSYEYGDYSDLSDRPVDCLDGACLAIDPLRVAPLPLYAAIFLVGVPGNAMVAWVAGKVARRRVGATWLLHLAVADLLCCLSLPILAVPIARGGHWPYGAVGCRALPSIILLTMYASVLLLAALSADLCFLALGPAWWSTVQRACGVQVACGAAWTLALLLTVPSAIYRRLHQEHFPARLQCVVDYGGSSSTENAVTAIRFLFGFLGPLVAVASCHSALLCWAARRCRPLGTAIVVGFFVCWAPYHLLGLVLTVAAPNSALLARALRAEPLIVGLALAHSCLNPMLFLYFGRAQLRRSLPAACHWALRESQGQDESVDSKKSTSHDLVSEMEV

Ki [1] [µM] | affinity for C5aR2 over C5aR1 ([1]; ratio of C5aR1 and C5aR2 affinities) [fold] | inhibition of 125I-C5a binding to C5a2 membranes, library screen [1] | inhibition of 125I-C5a binding to C5aR2 membranes, full concentration response [1] | Substance | inhibition of C5a-induced neutrophil mobilization [2] | inhibition of C5a-induced neutrophil mobilization [3]
48 | ~10 | significant inhibition | dose-dependently inhibited | Ac-LIRLWR-OH [Peptide P59, Ac-LIRLWR-OH] |  | 
223 |  | significant inhibition | dose-dependently inhibited | Ac-RHYPYWR-OH [Peptide P32, Ac-RHYPYWR-OH] | significantly inhibit | attenuated
